From patent publication US20040191811A1, “Methods for measuring levels of uridine-diphosphate-N-acetylglucosamine and activity of inhibitors thereof” (priority 2002, published 2004)
Like-named read-outs stand apart in the source and are kept apart here.

How the values were obtained:
GFAT-alpha = molecular target: T1, GFAT-alpha (Homo sapiens, UniProt Q06210); assay: GFAT-alpha inhibition, microtiter plate glucosamine 6-phosphate assay; format: biochemical; conditions: enzyme expressed in SF9 insect cells; glutamine 10 mM, fructose 6-phosphate 10 mM; 60 minutes at 37° C.
T1 construct: made in house; host or cells: SF9 insect cells (sonicated, centrifuged cell extract, not purified)
Experimental: Enzyme preparation. GFAT-alpha (GenBank Accession No. M90516) and GFAT-beta (Accession No. AB016789) are cloned into pET12 and pEF-BOS C vectors (New England BioLabs) for transfection into SF9 and Hi5 insect cells, COS, type 293 cells, and E.coli. Endogenous activity for each cell line was also measured in non-transfected cells. The enzymes are expressed in each cell line by growing in large 24×24 cm plates and harvesting 20 hours after transfection. The media is removed and the plates are washed in 15 ml PBS. 1.5 ml of a lysis buffer (PBS 1×, KCl 50 mM, EDTA 10 mM, with protease inhibitors leupeptin 10 ug/ml, PMSF 20 ug/ml, A-protinin 30 ug/ml, and pepstatin 10 ug/ml) is added to each plate and the cells are removed using a large plastic cell scraper. […] The cell #/lysis volume is about 4×10^7cell/ml. The suspension is sonicated on ice (Branson sonicator setting 2.5 to 3) for 15 seconds using a microtip. The sonicated cell extracts are stored in microfuge tubes at −80° C. Before use, the extracts are centrifuged at 15000×g for 5 minutes at 4° C. Each enzyme preparation is titrated to determine the volume that gives between 20 to 30 umoles of glucosamine 6-phosphate in a reaction mixture in a 60-minute incubation at 37° C. (FIGS. 1A and 1B).
Stimulation of GFAT activity. […] For most testing, a 60-minute incubation at 37° C. is carried out in 96 well microtiter plates. To give the best heat transfer the plates are sealed with a Costar plate sealer and floated on a 37° C. water bath. Air bubbles are removed from the bottom of the plate to ensure proper heat transfer to all wells. The 100 μl reaction volume consists of glutamine 10 mM, fructose 6-phosphate 10 mM, PBS 1×, EDTA 5 mM, DTT 1 mM and the enzyme preparation. A mixture of the incubation reagents is kept on ice and the enzyme is added to the mixture just before addition to the plate. Additional incubation mixture is kept on ice to add to standard and control samples. […] If test agents are to be used, 10 μl is added to the appropriate wells and the vehicle is added to the control wells before addition of the incubation mixture. […] A concentration range of 2.5 to 30 umoles is in the linear portion of the curve and covers the quantity of glucosamine 6-phosphate produced under the incubation conditions (FIG. 4). The cold mixture is added to the standard sample wells and the glucosamine 6-phosphate is then measured.
Measurement of glucosamine 6-phosphate The reaction is started by adding the incubation mixture to the appropriate wells in a microtiter plate and placing the plate on a 37° C. water bath. […] The acetylated glucosamine is measured by the Morgan and Elson color reaction (Morgan. W. T. J. & Elson, L. A. (1934).Biochem. J. 28, 988). […]

GFAT-beta = molecular target: T2, GFAT-beta (Homo sapiens, UniProt O94808); assay: GFAT-beta inhibition, microtiter plate glucosamine 6-phosphate assay; format: biochemical
T2 construct: made in house; host or cells: SF9 insect cells (sonicated, centrifuged cell extract, not purified)
Experimental: Stimulation of GFAT activity. […] For most testing, a 60-minute incubation at 37° C. is carried out in 96 well microtiter plates. To give the best heat transfer the plates are sealed with a Costar plate sealer and floated on a 37° C. water bath. Air bubbles are removed from the bottom of the plate to ensure proper heat transfer to all wells. […] A mixture of the incubation reagents is kept on ice and the enzyme is added to the mixture just before addition to the plate. Additional incubation mixture is kept on ice to add to standard and control samples. […] If test agents are to be used, 10 μl is added to the appropriate wells and the vehicle is added to the control wells before addition of the incubation mixture. 15 wells are left blank for addition of control and standard glucosamine 6-phosphate samples. After the incubation, 10 μl of the standards made up in the appropriate vehicle (DMSO) are added to the appropriate wells.

[1] = enzyme expressed in SF9 insect cells, glutamine 10 mM, fructose 6-phosphate 10 mM, 60 minutes at 37° C., read-out: IC50 for inhibition of GFAT-beta

T2 sequence (O94808 whole entry): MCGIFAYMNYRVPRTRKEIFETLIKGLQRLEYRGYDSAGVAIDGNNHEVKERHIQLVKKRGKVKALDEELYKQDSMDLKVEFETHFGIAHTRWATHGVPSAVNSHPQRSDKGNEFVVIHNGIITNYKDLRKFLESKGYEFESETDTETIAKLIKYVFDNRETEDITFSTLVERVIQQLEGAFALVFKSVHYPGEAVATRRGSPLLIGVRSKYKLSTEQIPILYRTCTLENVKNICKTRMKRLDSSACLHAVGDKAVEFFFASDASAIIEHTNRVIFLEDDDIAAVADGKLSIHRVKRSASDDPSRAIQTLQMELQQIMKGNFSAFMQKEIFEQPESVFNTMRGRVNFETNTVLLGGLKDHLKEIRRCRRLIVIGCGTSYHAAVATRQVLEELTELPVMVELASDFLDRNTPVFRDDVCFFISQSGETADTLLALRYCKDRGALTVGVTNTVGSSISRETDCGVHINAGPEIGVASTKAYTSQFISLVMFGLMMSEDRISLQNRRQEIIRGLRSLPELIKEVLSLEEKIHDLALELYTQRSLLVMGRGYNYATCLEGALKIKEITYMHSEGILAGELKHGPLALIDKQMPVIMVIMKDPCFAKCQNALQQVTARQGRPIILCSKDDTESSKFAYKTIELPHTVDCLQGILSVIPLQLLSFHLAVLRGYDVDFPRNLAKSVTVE
T1 sequence (Q06210 1-681 isoform Q06210-2): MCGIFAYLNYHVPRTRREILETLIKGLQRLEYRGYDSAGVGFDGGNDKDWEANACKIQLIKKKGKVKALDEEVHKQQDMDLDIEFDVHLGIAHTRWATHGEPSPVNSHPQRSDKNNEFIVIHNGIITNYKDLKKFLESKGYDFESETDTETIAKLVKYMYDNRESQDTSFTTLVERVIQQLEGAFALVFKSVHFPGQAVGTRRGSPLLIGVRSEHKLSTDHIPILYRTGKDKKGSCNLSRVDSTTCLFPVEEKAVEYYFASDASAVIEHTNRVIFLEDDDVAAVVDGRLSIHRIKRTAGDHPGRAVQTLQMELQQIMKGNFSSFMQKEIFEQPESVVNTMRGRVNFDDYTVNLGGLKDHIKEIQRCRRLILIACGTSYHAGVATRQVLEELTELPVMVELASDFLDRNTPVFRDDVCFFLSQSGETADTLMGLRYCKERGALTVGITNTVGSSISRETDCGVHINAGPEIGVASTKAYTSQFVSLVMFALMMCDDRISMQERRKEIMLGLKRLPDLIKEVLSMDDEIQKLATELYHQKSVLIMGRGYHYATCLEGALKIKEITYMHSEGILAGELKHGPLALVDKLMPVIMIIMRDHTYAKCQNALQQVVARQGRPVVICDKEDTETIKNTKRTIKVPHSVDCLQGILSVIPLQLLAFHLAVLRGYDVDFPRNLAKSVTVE

Molecule	IC50 (GFAT-alpha) [µM]	IC50 (GFAT-beta) [µM]	IC50 (GFAT-beta; [1]) [µM]	times as much required to inhibit GFAT-beta compared with GFAT-alpha (GFAT-beta; ratio of IC50 GFAT-beta to IC50 GFAT-alpha)
[N-]=[N+]=CC(=O)CC[C@H](N)C(=O)O [DON, 6-diazo-5-oxo-L-norleucine]	18	18	–	–
COC(=O)/C=C/C(=O)NC[C@H](N)C(=O)O [FMDP, N3-(-4-methoxyflumaroyl)-L-2,3-diaminopropanoic acid]	4	–	2.3	–
N[C@@H](CNC(=O)CBr)C(=O)O [N3-(bromoacetyl)-L-2,3-diaminopropanoic acid]	0.38	–	0.27	–
uridine-diphosphate-N-acetylglucosamine [UDP-N-acetylglucosamine]	8	–	100	more than 12 times
